In patent publication US20100203156A1, “XENON AS A TREATMENT FOR HEMOGLOBINOPATHY” (priority 2009, published 2010):

Tests used:
[1] = tested on: spinal dorsal horn neurons; details: cited from earlier work; for nociception depending on age: various ages / the young
HbS = HbS (Homo sapiens, UniProt P68871+P69905, E7V); details: cited from earlier work
[2] = cited from earlier work
hemoglobin [3] = molecular target: T1, hemoglobin (Homo sapiens, UniProt P68871+P69905); experiment: association rates of gases for hemoglobin; format: binding
[4] = with oxygen, human adults; cited from earlier work
[5] = inhaled xenon; cited from earlier work
hemoglobin [6] = molecular target: T1, hemoglobin; details: cited from earlier work

For `[N-]=[N+]=O` [nitrous oxide], the “nociception depending on age” value [1] is given as “ineffective in the young”.

For `C` [methane], the “effect on HbS aggregation” value (HbS) is listed as “prevent and reverse HbS aggregation”.

For `CC` [ethane], the “effect on HbS aggregation” value (HbS) is listed as “prevent and reverse HbS aggregation”.

In the case of `[Xe]` [xenon], the “nociceptive responsiveness of spinal dorsal horn neurons” value ([1]; animal studies) is given as “directly inhibited”, the “nociception depending on age” value [1] is given as “reduce nociception at various ages” and the “analgesia to cold pain” value ([2]; human, in vivo) is given as “not to cold pain”. For the same molecule, the “analgesia to ischemic, electrical, mechanical, and heat stimulation” value ([2]; human, in vivo) was “produced analgesia”, the “analgesic potency compared with nitrous oxide” value ([2]; human, in vivo) was “comparable or superior to nitrous oxide” and the “response to experimentally induced, standardized forms of pain” value ([2]; inhaled dose of ~20%, healthy volunteers) was “significantly decrease the response”. The “xenon association rate for hemoglobin relative to CO” value (hemoglobin [3]; versus CO) was 10 times faster, the “xenon association rate for hemoglobin relative to O2” value (hemoglobin [3]; versus O2) was 1-2 times faster and the “1 MAC, inhaled fractional concentration” value [4] was 0.63-0.73. For the same molecule, the “inhaled concentration at which nausea and vomiting has been observed” value [5] was > 30%, the “xenon in blood carried by hemoglobin” value (hemoglobin [6]; during xenon inhalation, estimated) was 45% and the “amount of xenon bound by reduced and oxyhemoglobin” value (hemoglobin [6]; reduced versus oxyhemoglobin) was “approximately the same”.

For `CCC` [propane], the “effect on HbS aggregation” value (HbS) is listed as “prevent and reverse HbS aggregation”.
